Results on three compounds are retold here after the NIST ThermoML archive (doi:10.1016/j.jct.2008.04.004).

Each structure is given as a SMILES string. Numbers after ± are expanded uncertainties.

Series [1] is described as follows: molar enthalpy of vaporization or sublimation. As to conditions: 298.15 K, Crystal.
The conditions of series [2]: Crystal.
[3] abbreviates: stuart scientific smp2 calibrated apparatus.

As for `N#Cc1ccccc1C(=O)O` [2-cyanobenzoic acid], the molar enthalpy in series [1] (Vacuum drop calorimetry) came out at 27.4 ± 0.717 kcal/mol. Also, in series [2] (DTA), the Normal melting temperature turned out to be 232.6 ± 0.5 °C.
For `N#Cc1cccc(C(=O)O)c1` [3-cyanobenzoic acid], the molar enthalpy in series [1] (Vacuum drop calorimetry) was 27.9 ± 0.717 kcal/mol. Also, the Normal melting temperature in series [2] (setting [3]) was 223 ± 1 °C.
Regarding `N#Cc1ccc(C(=O)O)cc1` [4-cyanobenzoic acid], the molar enthalpy in series [1] (Unpublished results by the authors) is 27 ± 0.478 kcal/mol. In addition, the Normal melting temperature in series [2] (setting [3]) was 220 ± 1 °C.
